In US20250325581A1, “USE OF SODIUM PENTABORATE PENTAHYDRATE AS A CHEMOTHERAPEUTIC AGENT” (YEDITEPE UNIVERSITESI, priority 2022, published 2025):
Where two headings read alike, the source gives them in different places.

Legend:
[1] = system: ACHN and A498 renal cancer cells; details: dosage determined by the MTS assay
Experimental: Cell proliferation analyses of renal cancer cells treated with the agent at the dosage determined by the MTS assay are performed by EdU (Ethinyl-2′-deoxyuridine) assay. […] For this assay, 10 uM EdU is applied to the cells cultured on slides placed in 6-well plates. Following the incubation, cells are fixed for 15 minutes with 3.7% formaldehyde diluted in PBS, and then washed with 3% BSA also diluted in PBS. Cell membrane permeability is increased by treatment with 0.5% nonionic surfactant diluted in PBS at room temperature for 20 minutes. After a final washing with 3% BSA solution, the reaction cocktail is added to the cells. Cells are incubated at room temperature for 30 minutes, and then the EdU-stained cells, which are actively synthesizing DNA, are observed under a confocal microscope.

ACHN renal cancer cells = system: ACHN renal cancer cells
Experimental: (§1) The effective dose of NaB on renal cancer was determined by colorimetric tetrazolium (MTS) viability assay on renal cancer cells (ACHN and A498) and healthy renal cells (RPTEC). MTS (3-(4,5-dimethyl-thiazol-2-yl)-5-(3-carboxy-methoxy-phenyl)-2-(4-sulfo-phenyl)-2H-tetrazolium) is a colorimetric assay based on the tetrazolium salt. The assay measures the enzyme activity which reduces MTS to the purple formazan. Cell cultures incubated for two hours are read by measuring the absorbance at 490 nm wavelength by means of ELISA. The NaB compound is dissolved at different concentrations (at ratios of 500 μg/ml, 1000 μg/ml, 1500 μg/ml, 2000 μg/ml, 2500 μg/ml, 3000 μg/ml, 3500 μg/ml for renal cancer cells, and 500 μg/ml, 1000 μg/ml, 2500 μg/ml, 5000 μg/ml, 7000 μg/ml for healthy renal cells) in the medium suitable for the cell used (30 seconds of vortexing is applied after the addition of the agent), filtered through 0.22 micron filters, and sterilized. MTS assays are performed at hours 24, 48, and 72, and as a result, the concentrations of dead cells at the IC50 dose are determined and the next steps are continued with these dosages.

A498 renal cancer cells = system: A498 renal cancer cells
Experimental: as §1

[2] = system: renal cancer cells (ACHN and A498) and healthy renal cells (RPTEC); details: IC50 dose for cancer cells applied 72 hours; cancer vs healthy cells
Experimental: Whether the death rates of renal cancer cells treated with the agent at the dosage determined by the MTS assay are dependent on apoptosis or not is determined by Annexin V assay. […] Annexin V binds to PSs, which were translocated to the outer surface of the cell, thereby making the apoptotic cell visible and it is measured by flow cytometry. Since Annexin V binding can also be observed on the surface of necrotic cells, Propidium Iodide (Red Fluorescence), which stains only dead cells, was added as a second stain. Cells, which are simultaneously stained with Annexin V-FITC (Green Fluorescence) and Propidium Iodide (Red Fluorescence), allow viable cells (FITC−PI−), early apoptotic cells (FITC+PI−), and late apoptotic or necrotic cells (FITC+PI+) to be distinguished from each other. Cells marked with Annexin V-FITCH-conjugated markers are analyzed by flow cytometry.

Substance: sodium pentaborate pentahydrate
- effect on cell proliferation [1]: slows down cell proliferation
- IC50 determined by MTS (ACHN renal cancer cells; Hour 24): >7000 µg/mL
- IC50 determined by MTS (ACHN renal cancer cells; Hour 48): 2000 µg/mL
- IC50 determined by MTS (dose which killed 50% of renal cancer cells) (ACHN renal cancer cells; Hour 72): 1550 µg/mL
- IC50 (ACHN renal cancer cells; read-out: dose which killed 50% of renal cancer cells, molar equivalent of the μg/ml value): 5.2 mM
- IC50 determined by MTS (A498 renal cancer cells; A498, Hour 24): >7000 µg/mL
- IC50 determined by MTS (A498 renal cancer cells; A498, Hour 48): 1900 µg/mL
- IC50 determined by MTS (dose which killed 50% of renal cancer cells) (A498 renal cancer cells; A498, Hour 72): 1400 µg/mL
- IC50 (A498 renal cancer cells; read-out: dose which killed 50% of renal cancer cells, A498, molar equivalent of the μg/ml value): 4.7 mM
- programmed cell death (apoptosis) [2]: selectively leads cancer cells to programmed cell death
